Experimental findings from patent publication US7786097B2, “Tricyclic compounds, compositions and methods” (Pfizer Inc., priority 2007, dated 2010) are described below.

As a reminder, the inhibition is the change of the read-out against control, counted positive when it falls.

Assay [1] relates to IFNγ production in human whole blood. Nature of the assay: Ex vivo LPS-stimulated human whole blood, IFNγ. The format is cell-based. The settings on record: LPS 100 ng/ml, 22 hours, mean of two donors. As to the method: (§1) Venous blood from human donors was collected as 10 ml aliquots in tubes containing sodium heparin (BD Vacutainer from Becton Dickinson and Company, Franklin Lakes, N.Y.). Blood was added to sterile polystyrene round bottom 96-well tissue culture plates (Corning Costar) at 100 μl/well, omitting the outside wells. Media (RPMI Medium 1640 with L-glutamine, Invitrogen Corporation, Carlsbad, Calif.) was added to the blood in 90 μl aliquots for a total volume of 190 μl. Outside wells were filled with 200 μl of media. Blood was placed in a humidified 37° C. incubator with 5% CO2 while compounds were prepared (nearly 60 minutes).
(§2) Compounds were prepared from 10 mM stock solutions in dimethylsulfoxide (DMSO, Sigma-Aldrich). […] Final DMSO and ethanol concentrations in the assay were 0.1% and 1.5%. The samples were gently triturated twice to mix and replaced in the incubator. LPS stock (E. coli serotype 0111:B4, Sigma-Aldrich), stored in aliquots of 100 μg/ml in RPMI at −20° C., was diluted 1/50 in RPMI to make a working stock solution. After 60 minutes of incubation, 10 μl of the prepared LPS working stock was added to the blood to a final concentration of 100 ng/ml, omitting wells to be used as negative control. The samples were again gently triturated and the plates incubated overnight for 22 hours. Following incubation, the blood was centrifuged at 1500×g for 5 minutes and the plasma removed to either freeze at −20° C. or assay for cytokine release.
(§3) IL-1β, IFNγ, IL-6, and TNFα protein levels were measured using Meso Scale assay kits (Meso Scale Discovery, Gaithersburg, Md.). Reagents were allowed to come to room temperature. Meso Scale plates were blocked with 30 μl of human plasma/serum assay diluent with gentle shaking for 60 minutes at room temperature. Plates were washed 3× with wash buffer (PBS, Invitrogen Corporation, with 0.05% Tween-20, Sigma-Aldrich). Calibrators for standard curves were prepared in human plasma/serum assay diluent as a […] serial dilution to achieve final concentrations ranging from 50000 pg/ml to 3.2 pg/ml. Samples and calibrators were added at 20 μl/well, then incubated at room temperature with gentle shaking for 90 minutes. Plates were again washed 3 times with wash buffer. Detection antibody was diluted in human plasma/serum antibody diluent to 1 μg/ml and added to the plate at 20 μl/well. Plates were incubated as before for 60 minutes and washed again. Read Buffer T<4×) was diluted 1:1 with mqH2O to 2 times concentration and 150 μl added to each well. Plates were analyzed on the SECTOR Imager 6000 (Meso Scale Discovery) to generate raw signal values.
(§4) IL-1β, IFN-γ, IL-6, and TNFα sample values were verified to be within the calibrator standard curves. Individual values were compared to positive and negative controls (vehicle treated blood with LPS and vehicle treated blood without LPS, respectively) to generate % inhibition. Triplicate values were averaged for each donor. The values for two donors were averaged (only one donor was used for IL-1β) and graphed using 4-parameter fit curves in the GraFit 5.0.11 application.

Assay [2] has as its system IL-6 production in human whole blood. The assay is described as follows: Ex vivo LPS-stimulated human whole blood, IL-6. The format is cell-based. Conditions: LPS 100 ng/ml, 22 hours, mean of two donors. As to the method: as §1, §2, §3, §4

The structures appear in SMILES notation.

As for `C[C@]12C=CC(=O)C=C1CC[C@@H]1[C@@H]2[C@@H](O)C[C@@]2(C)[C@H]1CC[C@]2(O)C(=O)CO` [Prednisolone], the values for the inhibition at 0.000457247 µM in assay [1] (0.457247 nM) and in assay [2] (0.457247 nM) were 4.93% and 2.22%, respectively. For the same compound, the figures for the inhibition at 0.00137174 µM in assay [1] (1.371742 nM) and in assay [2] (1.371742 nM) were 10.9% and -0.941%, respectively. Further, the inhibition at 0.00411523 µM in assay [1] (4.115226 nM) is 5.16%; in assay [2] (4.115226 nM) it was -0.232%. Moreover, the inhibition at 0.0123457 µM is 25.7% in assay [1] (12.34568 nM) and -0.417% in assay [2] (12.34568 nM). The inhibition at 0.037037 µM in assay [1] (37.03704 nM) amounted to 63.5%; in assay [2] (37.03704 nM) it was 5.03%. Besides, the inhibition at 0.111111 µM amounted to 95% in assay [1] (111.1111 nM) and 11.7% in assay [2] (111.1111 nM). In addition, the values for the inhibition at 0.333333 µM in assay [1] (333.3333 nM) and in assay [2] (333.3333 nM) were 99.8% and 40.3%, respectively. Besides, the inhibition at 1 µM in assay [1] (1000 nM) was 100%; in assay [2] (1000 nM), 62.1%.
